Results as given in US20240408169A1 (priority 2023, published 2024).
*1 amine or outer side, *2 acyl side, *3 side chain or, on linkers, in order; H or OH if unused. Where a SMILES comes first, the peptide text is derived from it. Bridges are numbered along the chain shown (N, C = ends). [ ]: non-standard residue; d: D form. The star is where a group is joined. X48 = CN(C)C[C@H]1CN(c2ccc(-c3ccc(Cl)cc3C[C@@H](C(=O)[*:2])N(C)[*:1])cc2)CCO1; X70 = CN1CCC[C@@H](c2ccc(-c3ccc(Cl)cc3C[C@@H](C(=O)[*:2])N(C)[*:1])cc2)C1; X1 = C[C@H]1CN(c2ccc(-c3ccc(Cl)cc3C[C@@H](C(=O)[*:2])N(C)[*:1])cc2)CCN1C; X23 = CCN([C@@H](Cc1cc(Cl)ccc1-c1ccc(N2CCN(C)CC2)cc1)C(=O)[*:2])[*:1]; X32 = CN([C@@H](Cc1cc(Cl)ccc1-c1ccc(N2CCOCC2=O)cc1)C(=O)[*:2])[*:1]; X49 = CN1CCc2ccc(-c3ccc(Cl)cc3C[C@@H](C(=O)[*:2])N(C)[*:1])cc2C1; X56 = CN1CCc2cc(-c3ccc(Cl)cc3C[C@@H](C(=O)[*:2])N(C)[*:1])ccc2C1; NMehhhLys(Me) = CN([C@@H](CCCCCCCN(C)[*:3])C(=O)[*:2])[*:1]; cBuCO(3,3-F2-1-CF3) = O=C(C1(C(F)(F)F)CC(F)(F)C1)*; Pro(trans-4-F) = O=C(O)[C@@H]1C[C@@H](F)CN1; Gly(cPr) = N[C@H](C(=O)O)C1CC1

Tests used:
[1] = molecular target: T1, CyclinA2/CDK2 (Homo sapiens, UniProt P20248); assay: Fluorescence Polarization (FP) competitive binding assay, Cyclin A2/Cdk2; details: 8 nM Cyclin A2/Cdk2, 2 nM FAM probe; average of 2-3 independent experiments; read-out: Cyclin A FP IC50;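 further: plates equilibrated two hours at room temperature before polarization reading, IC50 fitted from eight-concentration compound titration curves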
T1 construct: purchased CRELUX Protein Services

[2] = molecular target: T2, CyclinB1/CDK1 (Homo sapiens, UniProt P14635); assay: Fluorescence Polarization (FP) competitive binding assay, Cyclin B1/Cdk1; details: 10 nM Cyclin B1/Cdk1, 2 nM FAM probe; average of 2-3 independent experiments; read-out: Cyclin B FP IC50;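 further: fluorescence polarization read after equilibration at room temperature, with IC50 taken from serially diluted dose-response curves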
T2 construct: purchased Eurofins, discovery 14-450

[3] = molecular target: T3, CyclinE1/CDK2 (Homo sapiens, UniProt P24864); assay: Fluorescence Polarization (FP) competitive binding assay, Cyclin E1/Cdk2; details: 10 nM Cyclin E1/Cdk2, 2 nM FAM probe; average of 2-3 independent experiments; read-out: Cyclin E FP IC50;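 further: readings taken after two-hour equilibration at room temperature in HEPES buffer with NaCl, DTT, NP-40 and BSA, IC50 fitted from eight-concentration serial dilution series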
T3 construct: purchased Eurofins, discovery 14-475

[4] = test system: WI-38 cells; assay: MTT proliferation assay, WI-38; type: cell-based; details: 3 days compound exposure, 1:3 serial dilution starting at 10 μM;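 further: Eight- or ten-point dilution series, with exposure length chosen to span about three to four cell doublings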
[5] = test system: NCI-H1048 cells; assay: MTT proliferation assay, NCI-H1048; type: cell-based; details: 5 days compound exposure, 1:3 serial dilution starting at 10 μM;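 further: Dose-response in 96-well plates over 8 or 10 concentration points, with exposure spanning 3-4 cell doublings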
[6] = test system: OVCAR3 cells; assay: MTT proliferation assay, OVCAR3; type: cell-based; details: 5 days compound exposure, 1:3 serial dilution starting at 10 μM;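 further: compound given as an 8- or 10-point series, one day after plating, with exposure covering roughly 3-4 cell doublings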

Compound	IC50 [1] [nM]	IC50 [2] [nM]	IC50 [3] [nM]	GI50 [4] [nM]	GI50 [5] [nM]	GI50 [6] [nM]
CCN1C(=O)[C@H](CC(C)C)NC(=O)[C@@H](N(C)C(=O)[C@@H](NC(=O)[C@@H]2C[C@@H](F)CN2C(=O)C2(C(F)(F)F)CC(F)(F)C2)C2CC2)CCCCCCCN(C)C(=O)[C@@H]1Cc1cc(Cl)ccc1-c1ccc(N2CCN(C)CC2)cc1 [Example 405] ({cBuCO(3,3-F2-1-CF3)}-[Pro(trans-4-F)][Gly(cPr)][NMehhhLys(Me)]L[X23]; lactam 3-C)	50	20	2560	2160	40	50
CC(C)C[C@@H]1NC(=O)[C@@H](N(C)C(=O)[C@@H](NC(=O)[C@@H]2C[C@@H](F)CN2C(=O)C2(C(F)(F)F)CC(F)(F)C2)C2CC2)CCCCCCCN(C)C(=O)[C@H](Cc2cc(Cl)ccc2-c2ccc3c(c2)CN(C)CC3)N(C)C1=O [Example 406] ({cBuCO(3,3-F2-1-CF3)}-[Pro(trans-4-F)][Gly(cPr)][NMehhhLys(Me)]L[X49]; lactam 3-C)	20	20	1780	3350	20	40
CC(C)C[C@@H]1NC(=O)[C@@H](N(C)C(=O)[C@@H](NC(=O)[C@@H]2C[C@@H](F)CN2C(=O)C2(C(F)(F)F)CC(F)(F)C2)C2CC2)CCCCCCCN(C)C(=O)[C@H](Cc2cc(Cl)ccc2-c2ccc3c(c2)CCN(C)C3)N(C)C1=O [Example 407] ({cBuCO(3,3-F2-1-CF3)}-[Pro(trans-4-F)][Gly(cPr)][NMehhhLys(Me)]L[X56]; lactam 3-C)	20	20	1460	3010	10	20
CC(C)C[C@@H]1NC(=O)[C@@H](N(C)C(=O)[C@@H](NC(=O)[C@@H]2C[C@@H](F)CN2C(=O)C2(C(F)(F)F)CC(F)(F)C2)C2CC2)CCCCCCCN(C)C(=O)[C@H](Cc2cc(Cl)ccc2-c2ccc(N3CCOCC3=O)cc2)N(C)C1=O [Example 408] ({cBuCO(3,3-F2-1-CF3)}-[Pro(trans-4-F)][Gly(cPr)][NMehhhLys(Me)]L[X32]; lactam 3-C)	20	20	510	5530	10	10
CC(C)C[C@@H]1NC(=O)[C@@H](N(C)C(=O)[C@@H](NC(=O)[C@@H]2C[C@@H](F)CN2C(=O)C2(C(F)(F)F)CC(F)(F)C2)C2CC2)CCCCCCCN(C)C(=O)[C@H](Cc2cc(Cl)ccc2-c2ccc(N3CCN(C)[C@@H](C)C3)cc2)N(C)C1=O [Example 409] ({cBuCO(3,3-F2-1-CF3)}-[Pro(trans-4-F)][Gly(cPr)][NMehhhLys(Me)]L[X1]; lactam 3-C)	20	20	670	2460	10	10
CC(C)C[C@@H]1NC(=O)[C@@H](N(C)C(=O)[C@@H](NC(=O)[C@@H]2C[C@@H](F)CN2C(=O)C2(C(F)(F)F)CC(F)(F)C2)C2CC2)CCCCCCCN(C)C(=O)[C@H](Cc2cc(Cl)ccc2-c2ccc(N3CCO[C@@H](CN(C)C)C3)cc2)N(C)C1=O [Example 410] ({cBuCO(3,3-F2-1-CF3)}-[Pro(trans-4-F)][Gly(cPr)][NMehhhLys(Me)]L[X48]; lactam 3-C)	20	20	650	2000	10	10
CC(C)C[C@@H]1NC(=O)[C@@H](N(C)C(=O)[C@@H](NC(=O)[C@@H]2C[C@@H](F)CN2C(=O)C2(C(F)(F)F)CC(F)(F)C2)C2CC2)CCCCCCCN(C)C(=O)[C@H](Cc2cc(Cl)ccc2-c2ccc([C@@H]3CCCN(C)C3)cc2)N(C)C1=O [Example 411] ({cBuCO(3,3-F2-1-CF3)}-[Pro(trans-4-F)][Gly(cPr)][NMehhhLys(Me)]L[X70]; lactam 3-C)	20	20	760	1610	10	10
